Source: ChEMBL document CHEMBL1201862, “PubChem BioAssay data set” (2004)
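Five concentrations, 48 hours, 96-well plates. GI50: concentration for 50% inhibition of growth.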 Calls of active or inactive are those of the source. No stated cut-off is given here; in the data, active = GI50 up to about 1.1 µM and inactive = higher.

Key:
Test in all cases: NCI tumour cell line growth inhibition, 48 h
NCI-H460 = tested on: NCI-H460
TK-10 = tested on: TK-10
HCT-116 = tested on: HCT-116
DU-145 = tested on: DU-145
COLO 205 = tested on: COLO 205
SK-MEL-5 = tested on: SK-MEL-5
MDA-MB-231 = tested on: MDA-MB-231
SF-295 = tested on: SF-295
ACHN = tested on: ACHN
NCI-H522 = tested on: NCI-H522
BT-549 = tested on: BT-549
NCI-H23 = tested on: NCI-H23
786-0 = tested on: 786-0
SNB-19 = tested on: SNB-19
PC-3 = tested on: PC-3
HCC 2998 = tested on: HCC 2998
RXF 393 = tested on: RXF 393
LOX IMVI = tested on: LOX IMVI
UO-31 = tested on: UO-31
UACC-62 = tested on: UACC-62
OVCAR-5 = tested on: OVCAR-5
SK-OV-3 = tested on: SK-OV-3
SF-268 = tested on: SF-268
MCF7 = tested on: MCF7
A549 = tested on: A549
NCI-H226 = tested on: NCI-H226
MDA-N = tested on: MDA-N
M14 = tested on: M14
NCI/ADR-RES = tested on: NCI/ADR-RES
EKVX = tested on: EKVX
HOP-62 = tested on: HOP-62
IGROV-1 = tested on: IGROV-1
HCT-15 = tested on: HCT-15
KM12 = tested on: KM12
UACC-257 = tested on: UACC-257
CAKI-1 = tested on: CAKI-1
SF-539 = tested on: SF-539
Malme-3M = tested on: Malme-3M
OVCAR-3 = tested on: OVCAR-3
SW-620 = tested on: SW-620
OVCAR-4 = tested on: OVCAR-4
MDA-MB-435 = tested on: MDA-MB-435
OVCAR-8 = tested on: OVCAR-8
U-251 = tested on: U-251
HT-29 = tested on: HT-29
T47D = tested on: T47D
SK-MEL-28 = tested on: SK-MEL-28
RPMI-8226 = tested on: RPMI-8226
SR = tested on: SR
SK-MEL-2 = tested on: SK-MEL-2
MOLT-4 = tested on: MOLT-4
A498 = tested on: A498
K562 = tested on: K562

How did the GI50 (NCI-H460) turn out when C=CCn1c(-c2ccccc2)cs/c1=N\C(P(=O)(O)O)P(=O)(O)O was run?
The GI50 was > 100 µM (inactive).

What about the GI50 (TK-10) of the same compound?
Its GI50 is > 100 µM (inactive).

And the GI50 (HCT-116)?
Its GI50 is > 100 µM (inactive).

And the GI50 (DU-145)?
Its GI50 is > 100 µM (inactive).

And the GI50 (COLO 205)?
Its GI50 is > 100 µM (inactive).

What about the GI50 (SK-MEL-5) of the same compound?
Its GI50 is > 100 µM (inactive).

What about the GI50 (MDA-MB-231) of the same compound?
The GI50 was > 100 µM (inactive).

What about the GI50 (SF-295) of the same compound?
The GI50 was > 100 µM (inactive).

What about the GI50 (ACHN) of the same compound?
Its GI50 is > 100 µM (inactive).

What about the GI50 (NCI-H522) of the same compound?
The GI50 was > 100 µM (inactive).

What about the GI50 (BT-549) of the same compound?
The GI50 was > 100 µM (inactive).

What about the GI50 (NCI-H23) of the same compound?
Its GI50 is > 100 µM (inactive).

What about the GI50 (786-0) of the same compound?
The GI50 was > 100 µM (inactive).

And the GI50 (SNB-19)?
Its GI50 is > 100 µM (inactive).

And the GI50 (PC-3)?
Its GI50 is > 100 µM (inactive).

What about the GI50 (HCC 2998) of the same compound?
The GI50 was > 100 µM (inactive).

What about the GI50 (RXF 393) of the same compound?
Its GI50 is > 100 µM (inactive).

What about the GI50 (LOX IMVI) of the same compound?
Its GI50 is > 100 µM (inactive).

What about the GI50 (UO-31) of the same compound?
Its GI50 is > 100 µM (inactive).

And the GI50 (UACC-62)?
The GI50 was > 100 µM (inactive).

What about the GI50 (OVCAR-5) of the same compound?
The GI50 was > 100 µM (inactive).

And the GI50 (SK-OV-3)?
Its GI50 is > 100 µM (inactive).

And the GI50 (SF-268)?
The GI50 was > 100 µM (inactive).

And the GI50 (MCF7)?
Its GI50 is > 100 µM (inactive).

What about the GI50 (A549) of the same compound?
Its GI50 is > 100 µM (inactive).

And the GI50 (NCI-H226)?
The GI50 was > 100 µM (inactive).

What about the GI50 (MDA-N) of the same compound?
The GI50 was > 100 µM (inactive).

What about the GI50 (M14) of the same compound?
Its GI50 is > 100 µM (inactive).

And the GI50 (NCI/ADR-RES)?
The GI50 was > 100 µM (inactive).

And the GI50 (EKVX)?
The GI50 was > 100 µM (inactive).

What about the GI50 (HOP-62) of the same compound?
Its GI50 is > 100 µM (inactive).

And the GI50 (IGROV-1)?
Its GI50 is > 100 µM (inactive).

What about the GI50 (HCT-15) of the same compound?
The GI50 was > 100 µM.

And the GI50 (KM12)?
The GI50 was > 100 µM (inactive).

And the GI50 (UACC-257)?
Its GI50 is > 100 µM (inactive).

What about the GI50 (CAKI-1) of the same compound?
The GI50 was > 100 µM (inactive).

What about the GI50 (SF-539) of the same compound?
Its GI50 is > 100 µM (inactive).

What about the GI50 (Malme-3M) of the same compound?
Its GI50 is > 100 µM (inactive).

What about the GI50 (OVCAR-3) of the same compound?
The GI50 was > 100 µM (inactive).

COC1O[C@H]2[C@H]3[C@@H]1[C@@H](OS(=O)(=O)c1ccc(C)cc1)C(=O)N3C[C@H]2O (some centres undefined) was tested. Which GI50 (NCI-H460) did it give?
Its GI50 is > 100 µM (inactive).

And the GI50 (TK-10)?
The GI50 was > 100 µM (inactive).

What about the GI50 (HCT-116) of the same compound?
The GI50 was > 100 µM (inactive).

And the GI50 (DU-145)?
The GI50 was > 100 µM (inactive).

What about the GI50 (COLO 205) of the same compound?
The GI50 was > 100 µM (inactive).

And the GI50 (SW-620)?
The GI50 was > 100 µM (inactive).

What about the GI50 (SK-MEL-5) of the same compound?
Its GI50 is > 100 µM (inactive).

And the GI50 (MDA-MB-231)?
The GI50 was > 100 µM (inactive).

What about the GI50 (OVCAR-4) of the same compound?
Its GI50 is > 100 µM (inactive).

And the GI50 (MDA-MB-435)?
Its GI50 is > 100 µM (inactive).

And the GI50 (SF-295)?
The GI50 was > 100 µM (inactive).

And the GI50 (ACHN)?
The GI50 was > 100 µM (inactive).

And the GI50 (BT-549)?
Its GI50 is > 100 µM (inactive).

What about the GI50 (NCI-H23) of the same compound?
The GI50 was > 100 µM (inactive).

What about the GI50 (786-0) of the same compound?
Its GI50 is > 100 µM (inactive).

What about the GI50 (OVCAR-8) of the same compound?
Its GI50 is > 100 µM (inactive).

And the GI50 (SNB-19)?
Its GI50 is > 100 µM (inactive).

What about the GI50 (PC-3) of the same compound?
Its GI50 is 81.8 µM (inactive).

And the GI50 (U-251)?
Its GI50 is > 100 µM (inactive).

What about the GI50 (HCC 2998) of the same compound?
The GI50 was > 100 µM (inactive).

What about the GI50 (RXF 393) of the same compound?
Its GI50 is 17.9 µM (inactive).

What about the GI50 (HT-29) of the same compound?
The GI50 was > 100 µM (inactive).

And the GI50 (LOX IMVI)?
The GI50 was > 100 µM (inactive).

And the GI50 (T47D)?
Its GI50 is 64.4 µM (inactive).

And the GI50 (UO-31)?
The GI50 was > 100 µM (inactive).

And the GI50 (SK-MEL-28)?
The GI50 was > 100 µM (inactive).

And the GI50 (UACC-62)?
Its GI50 is > 100 µM (inactive).

And the GI50 (OVCAR-5)?
Its GI50 is > 100 µM (inactive).

What about the GI50 (RPMI-8226) of the same compound?
Its GI50 is 61.2 µM (inactive).

What about the GI50 (SK-OV-3) of the same compound?
The GI50 was > 100 µM (inactive).

And the GI50 (SF-268)?
The GI50 was > 100 µM (inactive).

What about the GI50 (MCF7) of the same compound?
The GI50 was > 100 µM (inactive).

What about the GI50 (A549) of the same compound?
Its GI50 is > 100 µM (inactive).

What about the GI50 (NCI-H226) of the same compound?
Its GI50 is > 100 µM (inactive).

And the GI50 (SR)?
Its GI50 is > 100 µM (inactive).

And the GI50 (M14)?
Its GI50 is > 100 µM (inactive).

And the GI50 (NCI/ADR-RES)?
Its GI50 is > 100 µM (inactive).

And the GI50 (EKVX)?
Its GI50 is > 100 µM (inactive).

And the GI50 (SK-MEL-2)?
The GI50 was > 100 µM (inactive).

What about the GI50 (HOP-62) of the same compound?
The GI50 was > 100 µM (inactive).

What about the GI50 (HCT-15) of the same compound?
The GI50 was > 100 µM.

What about the GI50 (MOLT-4) of the same compound?
Its GI50 is 48.5 µM (inactive).

And the GI50 (KM12)?
Its GI50 is > 100 µM (inactive).

What about the GI50 (UACC-257) of the same compound?
The GI50 was > 100 µM (inactive).

What about the GI50 (CAKI-1) of the same compound?
The GI50 was > 100 µM (inactive).

And the GI50 (SF-539)?
Its GI50 is > 100 µM (inactive).

And the GI50 (Malme-3M)?
The GI50 was > 100 µM (inactive).

And the GI50 (A498)?
The GI50 was > 100 µM (inactive).

What about the GI50 (K562) of the same compound?
Its GI50 is 65.9 µM (inactive).

What about the GI50 (OVCAR-3) of the same compound?
The GI50 was > 100 µM (inactive).
